Laboratory results taken from patent publication US20090081170A1, “Cardiac progenitor cells” (priority 2007, published 2009).

Columns and labels:
Assay type in all cases: cell-based, mouse
[1] = tested on: adult heart explants (adult EPDCs); test: Adult epicardial explant culture: EPDC outgrowth and differentiation
Method: A simple protocol for the outgrowth and differentiation of vasculogenic precursor cells (endothelial and vascular smooth muscle cells) from adult heart using Thymosin β4 to stimulate epicardial cell migration is described below.
• 1. Coat 6-well plates with gelatin: pipette 2 ml 0.1% gelatin solution, allow to stand for 15 minutes and aspirate. Optionally, place coverslips into wells, prior to gelatin coating. • 2. Cull adult mouse by cervical dislocation. • 3. Using sterile forceps and scissors make a lateral incision in the centre of the abdomen and tear back the fur to expose the rib cage. • 4. Carefully cut upwards through the sternum and along the diaphragm, taking care not to cut into the heart. Pull back the ribs to reveal the heart. • 5. Remove the heart using forceps and dissect away the atria and major vessels, to leave right and left ventricles. • 6. Place tissue in a 60 mm tissue culture dish (non gelatin coated) containing 2 ml DPBS. Cut into quarters and allow blood to rinse from the tissue. Carefully aspirate away DPBS. Using a sterile scalpel, cut the heart into pieces of approximately 1 mm^3. Reproducible EPDC outgrowth strongly depends upon the size of the heart pieces (optimally 1 mm^3). Larger pieces will not adhere to permit sufficient migration while smaller pieces tend to dissociate completely and cardiomyocyte death precedes adherence and EPDC outgrowth. • 7. Divide heart pieces into 4 equal portions (1 adult heart is typically divided between 4 wells for optimal EPDC outgrowth). • 8. Pipette 2 ml of EPDC culture medium, supplemented with 100 ng/ml Tβ4, into each well to be used. • 9. Place 1 portion of heart tissue into the centre of each well and ensure that all pieces are submerged. • 10. Gently transfer the plate to a humidified 5% CO2 37° C. incubator. Maintain cultures with minimum disturbance to allow explants to adhere. No feeding is required for the first 72 hours. Minimal disturbance is absolutely essential for EPDC outgrowth. Explants adhere only tenuously in the first instance and disturbance in the first few days of culture will prevent adhesion or lead to detachment. Plates should be transferred extremely cautiously between incubator and microscope or culture hood. After sufficient EPDCs have emerged, explants attach more firmly but care is still required as detachment may easily occur. • 11. After 72 hours in culture, carefully transfer plate to culture hood, wash explants gently with DPBS and add 2 ml fresh EPDC medium containing 100 ng/ml Tβ4. Leave for a further 24 hours before assessment of cellular phenotype.
• 1. Culture adult heart explants as described above. • 2. After 72 hours of culture, fix cells with 4% PFA for 10 minutes at room temperature. • 3. Wash cells twice with PBS. • 4. Permeabilise cells with 0.5% Triton X-100 in PBS for 5 minutes at room temperature. • 5. Wash cells twice with PBS. • 6. Block non-specific binding by incubating cells in BLOCK (1% BSA/10% sheep serum in PBS) for 1 hour at room temperature. • 7. Incubate cells with an appropriate dilution of primary antibody (epicardin, 1:100; SMalphaA, 1:700; Flk1, 1:100), or Procollagen type I, 1:100), in BLOCK. • 8. Wash cells 3 times using BLOCK. • 9. Incubate cells with the appropriate secondary antibody (epicardin: Cy3-conjugated anti-rabbit; SMalphaA: FITC-conjugated anti-mouse, 1:30; Procollagen type I: Alexa 488-conjugated anti-goat, 1:200; Flk1: Alexa 594-conjugated anti-rat, 1:200) diluted in BLOCK. • 10. Wash cells twice in PBS. • 11. Optionally, to stain nuclei, incubate with 5 ug/ml Hoechst in PBS for 5 minutes at room temperature. • 12. Wash cells twice in PBS. • 13. Mount coverslips onto microscope slides using 50% glycerol in PBS as mountant and visualize using a fluorescence microscope. […]

[2] = tested on: epicardial explants from E10.5 hearts; test: Embryonic epicardial explant cultures; conditions: E10.5 explants
Excerpt: In order to support our in vivo phenotype analyses and assess a direct effect of Tβ4 on developing epicardium, we established epicardial explant cultures from wild-type hearts13. We initially derived epicardial explants from stages E10.5 to E16.5 and postnatal day 1 (P1) neonates, treated with either, Tβ4, with VEGF and FGF7 [59], or a combination of Tβ4 and growth factors. Explants from E10.5 hearts, coincident with the formation of the epicardium, produced extensive outgrowths that differentiated into SMαA- and Tie2-positive cells (FIG. 3 b).

Akt (P-Ser 473) = test: Tβ4 treatment of C2C12 myoblast cells, Akt phosphorylation; conditions: C2C12 myoblasts, Tβ4 10 ng/ml
Method: Western blotting was performed using standard methods (Tris-Tricine 4-20% gradient SDS-PAGE for blotting of Tβ4 or Tβ10 peptides and Tris-glycine SDS-PAGE for all other proteins) using antibodies against Tβ4 (abcam), Tβ10 (Biodesign International), Tie-2 (Santa Cruz), SMαA (Sigma), GAPDH (Chemicon), Caspase-8 (Santa Cruz), Cleaved caspase-3, total Akt and Phospho-Akt (both Cell Signalling Technology).
C2C12 cells were cultured in DMEM containing 10% FBS. Tβ4 (10 ng/ml, mmundiagnostik AG) was added and cells harvested over a time course to assess the degree of phosphorylation (activation) of Akt.

Substance: Thymosin β4 [Tβ4]
- percentage incidence of myocardial progenitors (cells positive for Isl-1/Nkx2.5/Gata4) ([1]; Gata5-EYFP lineage trace explant cultures, mean +/− SEM, n=12 explants): 5.3+/−1.9%
- EPDCs positive for Tbx18 and Raldh2 ([1]; adult epicardial explants, immunofluorescence): significant number of proliferative, migrating EPDCs positive for Tbx18 and Raldh2
- differentiation of emerging epicardin-positive cells ([1]; adult explants, immunofluorescence): differentiated with migration into procollagen type I—, SMαA- and Flk1 (VEGF receptor)-positive cells
- EPDC outgrowth from adult heart explants ([1]; adult mouse heart explants, 8-12 weeks, vs untreated explants): stimulated extensive outgrowth of cells
- numbers of SMαA- and Tie2-positive cells [2]: significantly increased
- time to Akt activation (P-Ser 473) (Akt (P-Ser 473)): ≤ 10 min
